Results as given in patent publication US20250034216A1, “STEREOSELECTIVE COVALENT LIGANDS FOR ONCOGENIC AND IMMUNOLOGICAL PROTEINS” (The Scripps Research Institute, priority 2021, published 2025).

Legend:
Experiment in all cases: IA-DTB cysteine engagement
Type in all cases: binding
Conditions in all cases: 22Rv1 cells, 20 μM probe, 1 h, relative to DMSO
LAPTM4A_C23 = target: T1, LAPTM4A_C23 (Homo sapiens, UniProt Q15012)
T1 construct: endogenous in cells; host or cells: 22Rv1
Method in brief: (§1)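 Probe-exposed cells were lysed, IA-DTB-labeled, trypsinized and streptavidin-enriched. Multiplexed TMT quantitation gave engagement ratios versus DMSO, with non-tryptic peptides excluded and intensities normalized to median summed signal.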

TMEM256-PLSCR3_C126 = target: T2, TMEM256-PLSCR3_C126 (Homo sapiens, UniProt Q9NRY6)
T2 construct: endogenous in cells; host or cells: 22Rv1
Method in brief: as §1

VPS18_C522 = target: T3, VPS18_C522 (Homo sapiens, UniProt Q9P253)
T3 construct: endogenous in cells; host or cells: 22Rv1
T3 sequence (Q9P253 1-973): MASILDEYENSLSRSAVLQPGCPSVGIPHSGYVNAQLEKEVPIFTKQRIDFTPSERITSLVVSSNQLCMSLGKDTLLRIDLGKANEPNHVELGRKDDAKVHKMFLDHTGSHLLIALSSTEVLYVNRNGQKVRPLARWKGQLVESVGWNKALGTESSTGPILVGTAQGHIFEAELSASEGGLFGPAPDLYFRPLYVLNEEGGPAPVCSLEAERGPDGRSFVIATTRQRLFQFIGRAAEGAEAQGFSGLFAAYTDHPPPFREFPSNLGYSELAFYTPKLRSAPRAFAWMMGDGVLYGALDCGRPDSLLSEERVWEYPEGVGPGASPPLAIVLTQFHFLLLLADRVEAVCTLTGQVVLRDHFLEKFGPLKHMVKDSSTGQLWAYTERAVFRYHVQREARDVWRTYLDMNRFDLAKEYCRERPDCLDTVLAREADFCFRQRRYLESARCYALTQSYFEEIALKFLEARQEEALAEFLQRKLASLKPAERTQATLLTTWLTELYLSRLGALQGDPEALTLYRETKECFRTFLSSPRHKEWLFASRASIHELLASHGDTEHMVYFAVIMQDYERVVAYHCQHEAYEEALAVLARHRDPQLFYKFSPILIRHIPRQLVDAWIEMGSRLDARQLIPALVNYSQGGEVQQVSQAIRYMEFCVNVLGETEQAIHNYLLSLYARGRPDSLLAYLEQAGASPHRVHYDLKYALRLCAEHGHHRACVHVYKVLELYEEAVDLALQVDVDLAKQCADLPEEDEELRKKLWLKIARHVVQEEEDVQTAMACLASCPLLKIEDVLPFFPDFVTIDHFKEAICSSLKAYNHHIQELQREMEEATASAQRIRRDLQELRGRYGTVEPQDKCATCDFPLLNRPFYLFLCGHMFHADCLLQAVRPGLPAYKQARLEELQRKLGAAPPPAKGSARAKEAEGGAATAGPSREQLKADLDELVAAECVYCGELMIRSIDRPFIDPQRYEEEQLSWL
Method in brief: as §1

T2 sequence (Q9NRY6 whole entry): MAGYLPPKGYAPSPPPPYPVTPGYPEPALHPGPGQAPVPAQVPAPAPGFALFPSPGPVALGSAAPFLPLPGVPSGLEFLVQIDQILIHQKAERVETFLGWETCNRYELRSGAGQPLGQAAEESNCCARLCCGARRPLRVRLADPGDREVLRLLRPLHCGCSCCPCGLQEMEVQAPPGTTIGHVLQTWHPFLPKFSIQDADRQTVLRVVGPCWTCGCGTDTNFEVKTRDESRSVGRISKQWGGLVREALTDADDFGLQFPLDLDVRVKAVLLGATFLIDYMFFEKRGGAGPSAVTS

Row | % engagement LAPTM4A_C23 (LAPTM4A_C23) | % engagement TMEM256-PLSCR3_C126 (TMEM256-PLSCR3_C126) | % engagement VPS18_C522 (VPS18_C522) | Structure (SMILES)
1 | 72% | 66% | 21% | C=CC(=O)N1C[C@H](c2ccc(Br)cc2)[C@H]1C(=O)Nc1cccc2cccnc12 [MY-3B, (2S,3S)-1-acryloyl-3-(4-bromophenyl)-N-(quinolin-8-yl)azetidine-2-carboxamide]
2 | 54.5% | 86% | 45% | C=CC(=O)N1C[C@H](c2ccc(Br)cc2)[C@@H]1C(=O)Nc1cccc2cccnc12 [MY-1B, (2R,3S)-1-acryloyl-3-(4-bromophenyl)-N-(quinolin-8-yl)azetidine-2-carboxamide]
3 | 48% | 58% | 88% | C=CC(=O)N1C[C@H](c2ccc(Br)cc2)[C@H]1C(=O)Nc1cccc2cccnc12 [MY-3A, (2S,3S)-1-acryloyl-3-(4-bromophenyl)-N-(quinolin-8-yl)azetidine-2-carboxamide]
4 | 67% | 81% | −22% | C=CC(=O)N1C[C@@H](c2ccc(Br)cc2)[C@H]1C(=O)Nc1cccc2cccnc12 [MY-1A, (2S,3R)-1-acryloyl-3-(4-bromophenyl)-N-(quinolin-8-yl)azetidine-2-carboxamide]
